According to patent US11834467B2, “Substituted indazoles as hematopoietic progenitor kinase 1 (HPK1) inhibitors” (1ST Biotherapeutics, Inc., priority 2020, dated 2023):
pEC50: −log10 of the molar value. Read-outs that look alike come from different tables or passages of the source.

System: human peripheral blood pan T cells
Assay: IFNγ and IL-2 secretion analysis of human peripheral pan T cells
Assay type: cell-based
Settings: CD3/CD28 stimulation, 100 nM Prostaglandin E2, 24 hr
Method: Human peripheral blood pan T cells were purchased from STEMCELL™ Technologies Inc. Human peripheral blood pan T cells were thawed and suspended in DMEM media (10% FBS and 100 Penicillin/Streptomycin). 8×10^4 T cells were seeded in 96-well plate and incubated with various concentration of compounds and 100 nM Prostaglandin E2 for 1 hr. T cells were stimulated with Dynabeads Human T-Activator CD3/CD28 (Life Technologies) at a 1:3 cells:beads ratio. […] Data were analyzed with an MESO Quickplex SQ120 (Mesoscale Discovery).

[1] = Homo sapiens, T-cell, 24 h, IFNγ secretion, read-out: IFNγ (EC50)
[2] = Homo sapiens, T-cell, 24 h, IL-2 secretion, read-out: IL-2 (EC50)

| pEC50 [1] | pEC50 [2] | pEC50 (IFNγ secretion, read-out: IFNγ (EC50)) | SMILES |
| --- | --- | --- | --- |
| > 6.70 | 6.00 to 6.70 |  | CCc1c(F)cc2[nH]ncc2c1-c1ccc2nc(NC(=O)[C@@H]3C[C@@H]3F)cn2n1 [Example 4] |
| 6.00 to 6.70 | 6.00 to 6.70 |  | CCc1c(F)c(N(C)C)c2[nH]ncc2c1-c1ccc2nc(NC(=O)[C@@H]3C[C@@H]3F)cn2n1 [Example 7] |
| 6.00 to 6.70 | 6.00 to 6.70 |  | CCOc1c(F)c(CC)c(-c2ccc3nc(NC(=O)[C@@H]4C[C@@H]4F)cn3n2)c2cn[nH]c12 [Example 13] |
| > 6.70 | 6.00 to 6.70 |  | CCc1c(F)c(N(C)C)c2[nH]ncc2c1-c1cn2cc(NC(=O)[C@@H]3C[C@@H]3F)nc2cn1 [Example 26] |
| > 6.70 |  |  | CSc1c(F)c(SC)c2[nH]ncc2c1-c1cn2cc(NC(=O)[C@@H]3C[C@@H]3F)nc2cn1 [Example 27] |
| > 6.70 | 6.00 to 6.70 |  | CN(C)c1c(F)c(Cl)c(-c2cn3cc(NC(=O)[C@@H]4C[C@@H]4F)nc3cn2)c2cn[nH]c12 [Example 33] |
| > 6.70 | 6.00 to 6.70 |  | CCOc1c(F)c(Cl)c(-c2cn3cc(NC(=O)[C@@H]4C[C@@H]4F)nc3cn2)c2cn[nH]c12 [Example 34] |
| 6.00 to 6.70 | 6.00 to 6.70 | > 6.70 | CSc1c(F)c(Cl)c(-c2cn3cc(NC(=O)[C@@H]4C[C@@H]4F)nc3cn2)c2cn[nH]c12 [Example 38] |
| > 6.70 | 6.00 to 6.70 |  | CN(C)c1c(F)c(C(F)(F)F)c(-c2cn3cc(NC(=O)[C@@H]4C[C@@H]4F)nc3cn2)c2cn[nH]c12 [Example 40] |
| > 6.70 | 6.00 to 6.70 |  | CCN(C)c1c(F)c(Cl)c(-c2cn3cc(NC(=O)[C@@H]4C[C@@H]4F)nc3cn2)c2cn[nH]c12 [Example 41] |
| > 6.70 | 6.00 to 6.70 |  | CCN(C)c1c(F)c(C(F)(F)F)c(-c2cn3cc(NC(=O)[C@@H]4C[C@@H]4F)nc3cn2)c2cn[nH]c12 [Example 42] |
| > 6.70 | 6.00 to 6.70 |  | CCOc1c(F)c(CC)c(-c2cn3cc(NC(=O)[C@@H]4C[C@@H]4F)nc3cn2)c2cn[nH]c12 [Example 44] |
| > 6.70 | 6.00 to 6.70 |  | CN(c1c(F)c(Cl)c(-c2cn3cc(NC(=O)[C@@H]4C[C@@H]4F)nc3cn2)c2cn[nH]c12)C1CC1 [Example 58] |
| > 6.70 | 6.00 to 6.70 |  | CC(C)Nc1c(F)c(Cl)c(-c2cn3cc(NC(=O)[C@@H]4C[C@@H]4F)nc3cn2)c2cn[nH]c12 [Example 61, (1S,2S)—N-(6-(5-chloro-6-fluoro-7-(isopropylamino)-1H-indazol-4-yl)imidazo[1,2-a]pyrazin-2-yl)-2-fluorocyclopropane-1-carboxamide] |
| > 6.70 | 6.00 to 6.70 |  | CC(C)N(C)c1c(F)c(Cl)c(-c2cn3cc(NC(=O)[C@@H]4C[C@@H]4F)nc3cn2)c2cn[nH]c12 [Example 62] |
| > 6.70 | > 6.70 |  | CC(C)c1c(F)c(Cl)c(-c2cn3cc(NC(=O)[C@@H]4C[C@@H]4F)nc3cn2)c2cn[nH]c12 [Example 64, (1S,2S)—N-(6-(5-chloro-6-fluoro-7-isopropyl-1H-indazol-4-yl)imidazo[1,2-a]pyrazin-2-yl)-2-fluorocyclopropane-1-carboxamide] |
